Earlier results on six molecules are cited in patent publication EP0769503A2, “A heparin complex and medical device having such substance” (priority 1995, dated 1997).

A value given as a limit tells only on which side of the number the result lay.

In this data set the test system is rat. The note with it: oral administration to rat.
Consider `CCCCCCCCCCCCCCCCCC[N+](C)(C)CCCCCCCCCCCCCCCCCC.[Cl-]` [Distearyldimethylammonium chloride], for which the LD50 is 11300 mg/kg.
With `CCCCCCCCCCCC[N+](C)(C)Cc1ccccc1.[Cl-]` [Laurylbenzyldimethylammonium chloride], the median lethal dose (LD50) was greater than 500 mg/kg.
With `CCCCCCCCCCCCCCCCCC[N+](C)(C)Cc1ccccc1.[Cl-]` [Stearylbenzyldimethylammonium chloride], the LD50 is on record as 1250 mg/kg.
As for `CCCCCCCCCCCCCCCC[N+](C)(C)C.[Cl-]` [Trimethylhexadecylammonium chloride], the LD50 is 250 to 300 mg/kg.
With `CCCCCCCCCCCCCCCCCC[N+](C)(C)C.[Cl-]` [Trimethyloctadecylammonium chloride], the LD50 is 1000 mg/kg.
In the case of “Benzalkonium dimethylammonium (C8-C18) chloride”, the LD50 is reported as 445 mg/kg.
